Results from patent publication US10195201B2, “Heteroaryl-pyrimidinone compounds as PDE2 inhibitors” (Merck Sharp & Dohme Corp., priority 2015, dated 2019).
Where two headings read alike, the source gives them in different places.

Experiments:
[1] = molecular target: human PDE2A1 (Homo sapiens (Human), UniProt O00408); test: PDE2 fluorescence polarization (IMAP FP) inhibition assay, human enzyme; format: biochemical
Description: (§1) The activity of the compounds in accordance with the present invention as PDE2 inhibitors may be readily determined using a fluorescence polarization (FP) methodology (Huang, W., et al., J. Biomol Screen, 2002, 7: 215).
Selectivity for PDE2, as compared to other PDE families, was assessed using the IMAPR technology. Human PDE10A2 enzyme was prepared from cytosolic fractions of transiently transfected HEK cells. All other PDE's were GST Tag human enzyme expressed in insect cells and were obtained from BPS Bioscience (San Diego, Calif.): PDE1A (Cat#60010), human PDE2A1(Cat#60020), PDE3A (Cat#60030), PDE4A1A (Cat#60040), PDE5A1 (Cat#60050), PDE6C (Cat#60060), PDE7A (Cat#60070), PDE8A1 (Cat#60080), PDE9A2 (Cat#60090), PDE11A4 (Cat#60110).
Assays for PDE 1 through 11 were performed in parallel at room temperature in 384-well microtiter plates with an incubation volume of 20.2 μL. Solutions of test compounds were prepared in DMSO and serially diluted with DMSO to yield 30 μL of each of ten solutions differing by 3-fold in concentration, at 32 serial dilutions per plate. […] A Labcyte POD 810 (Labcyte, Sunnyvale, Calif.) was used to dispense 200 nL from each well of the titration plate to make eleven copies of the assay plate for each titration, one copy for each PDE enzyme. A solution of each enzyme (dilution from aliquots, sufficient to produce 20% substrate conversion) and a separate solution of FAM-labeled cAMP or FAM-labeled cGMP from Molecular Devices (Sunnyvale, Calif., product # R7506 or cGMP#R7508), at a final concentration of 50 nM were made in the assay buffer (10 mM Tris HCl, pH 7.2, 10 mM MgCl2, 0.05% NaN3 0.01% Tween-20, and 1 mM DTT). Note that the substrate for PDE2 is 50 nM FAM cAMP containing 1000 nM of cGMP. The enzyme and the substrate were then added to the assay plates in two consecutive additions of 10 μL and then shaken to mix. The reaction was allowed to proceed at room temperature for 60 minutes. A binding solution was then made from the kit components, comprised of 80% Solution A, 20% Solution B and binding reagent at a volume of 1/600 the total binding solution. The enzymatic reaction was stopped by addition of 60 μL of the binding solution to each well of the assay plate. The plates were sealed and shaken for 10 seconds. The plates were incubated at room temperature for one hour, then the parallel and perpendicular fluorescence was measured using a Tecan Genios Pro plate reader (Tecan, Switzerland). The apparent inhibition constants for the compounds against all 11 PDE's was determined from the parallel and perpendicular fluorescent readings as described for PDE10 FP assay using the following apparent KM values for each enzyme and substrate combination: PDE1A (FAM cGMP) 70 nM, human PDE2A1 (FAM cAMP) 10,000 nM, PDE3A (FAM cAMP) 50 nM, PDE4A1A (FAM cAMP) 1500 nM, PDE5A1 (FAM cGMP) 400 nM, PDE6C (FAM cGMP) 700 nM, PDE7A (FAM cAMP) 150 nM, PDE8A1 (FAM cAMP) 50 nM, PDE9A2 (FAM cGMP) 60 nM, […] (FAM cAMP) 150 nM, PDE11A4 (FAM cAMP) 1000 nM. The intrinsic PDE2 inhibitory activity of a compound which may be used in accordance with the present invention may be determined by these assays. […]

[2] = molecular target: Rhesus PDE2A3 (Macaca mulatta, UniProt B3VTJ2); test: PDE2 fluorescence polarization (IMAP FP) inhibition assay, rhesus enzyme; format: biochemical, rhesus macaque
Chain of Rhesus PDE2A3 (B3VTJ2 1-941): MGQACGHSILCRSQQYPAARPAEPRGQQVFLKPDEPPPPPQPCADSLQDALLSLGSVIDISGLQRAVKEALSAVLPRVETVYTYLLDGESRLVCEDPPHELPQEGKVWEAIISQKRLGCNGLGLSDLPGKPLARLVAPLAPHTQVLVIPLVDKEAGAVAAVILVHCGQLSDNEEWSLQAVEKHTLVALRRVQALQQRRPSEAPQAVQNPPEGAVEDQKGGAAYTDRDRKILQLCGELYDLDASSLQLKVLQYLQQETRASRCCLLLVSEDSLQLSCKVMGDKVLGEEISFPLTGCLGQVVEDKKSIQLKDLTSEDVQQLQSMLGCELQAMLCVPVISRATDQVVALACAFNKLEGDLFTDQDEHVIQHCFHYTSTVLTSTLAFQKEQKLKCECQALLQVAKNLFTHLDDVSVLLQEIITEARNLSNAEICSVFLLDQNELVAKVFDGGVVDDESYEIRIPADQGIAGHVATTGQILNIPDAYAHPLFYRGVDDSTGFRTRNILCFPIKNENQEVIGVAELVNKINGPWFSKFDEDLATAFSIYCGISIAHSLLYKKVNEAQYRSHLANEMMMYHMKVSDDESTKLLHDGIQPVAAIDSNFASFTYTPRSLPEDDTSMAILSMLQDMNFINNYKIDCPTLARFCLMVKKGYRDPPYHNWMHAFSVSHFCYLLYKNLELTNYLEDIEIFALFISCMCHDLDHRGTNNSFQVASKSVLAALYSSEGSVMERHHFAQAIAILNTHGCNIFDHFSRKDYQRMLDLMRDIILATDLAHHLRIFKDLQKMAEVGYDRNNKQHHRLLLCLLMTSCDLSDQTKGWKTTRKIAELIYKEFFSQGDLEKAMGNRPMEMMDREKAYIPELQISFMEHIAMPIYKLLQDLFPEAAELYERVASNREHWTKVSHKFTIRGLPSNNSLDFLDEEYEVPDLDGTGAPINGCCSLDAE
Description: as §1
In a typical experiment the PDE2 inhibitory activity of the compounds of the present invention was determined in accordance with the following experimental method. Rhesus PDE2A3 was amplified from rhesus macaque brain cDNA (Biochain Institute, Hayward, Calif.) using primers based on human PDE2A sequence (accession NM_002599.3) where the forward primer containing a Kozak consensus was 5′-[…]-3′ and the reverse primer was 5′-[…]-3′. Amplification with Easy-A High-Fidelity PCR cloning enzyme (Stratagene, La Jolla, Calif.) was 95° C. for 2 minutes followed by thirty three cycles of 95° C. for 40 seconds, 52° C. for 30 seconds, and 72° C. for 2 minutes 48 seconds. Final extension was 72° C. for 7 minutes. The PCR product was TA cloned into pcDNA3.3-TOPO (Invitrogen, Carlsbad, Calif.) according to standard protocol. A consensus sequence was developed from multiple clones and then deposited into GenBank (EU812167). AD293 cells (Stratagene, La Jolla, Calif.) with 70-80% confluency were transiently transfected with rhesus PDE2A3/pcDNA3.3-TOPO using Lipofectamine 2000 according to manufacturer specifications (Invitrogen, Carlsbad, Calif.). Cells were harvested 48 hours post-transfection and lysed by sonication (setting 3, 10×5 sec pulses) in a buffer containing 20 mM HEPES pH 7.4, 1 mM EDTA and Complete Protease Inhibitor Cocktail Tablets (Roche, Indianapolis, Ind.). Lysate was collected by centrifugation at 75,000×g for 20 minutes at 4° C. and supernatant utilized for evaluation of PDE2 activity. The fluorescence polarization assay for cyclic nucleotide phosphodiesterases was performed using an IMAP® FP kit supplied by Molecular Devices, Sunnyvale, Calif. (product # R8139). […] Assays were performed at room temperature in 384-well microtiter plates with an incubation volume of 20.2 μL. Solutions of test compounds were prepared in DMSO and serially diluted with DMSO to yield 8 μL of each of 10 solutions differing by 3-fold in concentration, at 32 serial dilutions per plate. […] 0% of inhibition is determined by using DMSO (1% final concentrations).
A Labcyte Echo 555 (Labcyte, Sunnyvale, Calif.) is used to dispense 200 nL from each well of the titration plate to the 384 well assay plate. Ten microliters of a solution of enzyme (1/2000 final dilution from aliquots; sufficient to produce 20% substrate conversion) was added to the assay plate. Next 10 uL of a separate solution of the substrate FAM-labeled cAMP (50 nM final concentration product # R7506 from Molecular Devices) and the activator cGMP (1 uM final concentration), prepared in the assay buffer (10 mM Tris HCl, pH 7.2, 10 mM MgCl2, 0.05% NaN3 0.01% Tween-20, and 1 mM DTT) was added to the assay plate and shaken to mix. The reaction is allowed to proceed at room temperature for 60 minutes. A binding solution is then made from the kit components, comprised of 80% Solution A, 20% Solution B and binding reagent at a volume of 1/600 the total binding solution. The enzymatic reaction is stopped by addition of 60 μL of the binding solution to each well of the assay plates and the plates are sealed and shaken for 30 seconds. The plate was incubated at room temperature for at least one hour prior to determining the fluorescence polarization (FP). The parallel and perpendicular fluorescence of each well of the plate was measured using a Tecan Genios Pro plate reader (Tecan, Switzerland) or Perkin Elmer EnVision™ plate reader (Waltham, Mass.). Fluorescence polarization (mP) was calculated from the parallel (S) and perpendicular (P) fluorescence of each sample well and the analogous values for the median control well, containing only substrate (So and Po), using the following equation: Polarization (mP)=1000*(S/So−P/Po)/(S/So+P/Po).

[3] = LabB, read-out: hPDE2 Ki (nM) LabB
[4] = LabA, read-out: rhPDE2 Ki (nM) LabA
[5] = LabB, read-out: rhPDE2 Ki (nM) LabB
[6] = LabA, read-out: hPDE2 Ki (nM) LabA

Chain of human PDE2A1 (O00408 other isoform, or with tags, fused parts or gaps): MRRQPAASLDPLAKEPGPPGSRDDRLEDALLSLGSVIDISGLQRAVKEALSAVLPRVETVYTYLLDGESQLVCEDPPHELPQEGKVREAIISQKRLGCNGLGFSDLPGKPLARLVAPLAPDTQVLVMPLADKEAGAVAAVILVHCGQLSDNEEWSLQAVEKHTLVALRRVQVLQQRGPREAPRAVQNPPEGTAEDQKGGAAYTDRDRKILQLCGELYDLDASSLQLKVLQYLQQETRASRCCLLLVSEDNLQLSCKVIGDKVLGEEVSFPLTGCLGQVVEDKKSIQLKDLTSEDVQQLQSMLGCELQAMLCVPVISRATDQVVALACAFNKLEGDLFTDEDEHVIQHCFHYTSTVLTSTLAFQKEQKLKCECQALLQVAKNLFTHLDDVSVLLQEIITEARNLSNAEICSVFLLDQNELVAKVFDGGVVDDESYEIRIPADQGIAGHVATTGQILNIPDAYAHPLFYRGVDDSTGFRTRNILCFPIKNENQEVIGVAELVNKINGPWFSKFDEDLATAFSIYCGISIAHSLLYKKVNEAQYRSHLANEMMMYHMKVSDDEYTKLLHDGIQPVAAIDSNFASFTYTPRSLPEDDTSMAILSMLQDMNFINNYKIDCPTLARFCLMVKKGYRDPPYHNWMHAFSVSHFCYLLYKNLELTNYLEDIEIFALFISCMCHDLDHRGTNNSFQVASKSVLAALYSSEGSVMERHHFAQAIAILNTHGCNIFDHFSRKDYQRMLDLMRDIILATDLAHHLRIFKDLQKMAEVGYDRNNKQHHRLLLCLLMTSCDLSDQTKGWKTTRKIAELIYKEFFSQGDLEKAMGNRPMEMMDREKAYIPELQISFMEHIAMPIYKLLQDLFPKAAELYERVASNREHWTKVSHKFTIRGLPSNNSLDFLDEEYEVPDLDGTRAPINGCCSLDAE

Q: How did the Ki [1, 3] turn out when `Cc1nc(-c2cc(C(C)c3ccc(OC(F)(F)F)c(F)c3)ncn2)cc(=O)[nH]1` (single isomer, unassigned) [Example 40, (R)- or (S)-6′-(1-(3-fluoro-4-(trifluoro-methoxy)phenyl)ethyl)-2-methyl-[4,4′-bipyrimidin]-6(1H)-one] was run?
A: 1.8 nM

Q: How did the Ki [1, 3] turn out when `Cc1nc(-c2cc(C(C)c3ccc(C(C)(F)F)cc3)ncn2)cc(=O)[nH]1` (single isomer, unassigned) [Example 37, (S)- or (R)-6′-(1-(4-(1,1-difluoro-ethyl)phenyl)ethyl)-2-methyl-[4,4′-bipyrimidin]-6(1H)-one] was run?
A: 65 nM

Q: How did the Ki [2, 4] turn out when `Cc1nc(-c2nnc([C@H](C)c3ccc(C(F)(F)F)cc3)o2)cc(=O)[nH]1` (single isomer, unassigned) [Example 9] was run?
A: 86 nM

Q: And the Ki [2, 5]?
A: 159 nM

Q: What about the Ki [1, 6] of the same compound?
A: 79 nM

Q: What does the source list for `Cc1nc(-c2cn([C@H](C)c3ccc(C(F)(F)F)cc3F)cn2)cc(=O)[nH]1` (single isomer, unassigned) [Example 15]?
A: Ki [2, 4]: 24 nM; Ki [2, 5]: 46 nM; Ki [1, 6]: 21 nM

Q: For `Cc1nc(-c2cc([C@H](C)c3ccc(C(C)(C)O)cc3)ncn2)cc(=O)[nH]1` (single isomer, unassigned) [Example 46], which Ki [1, 3] is on record?
A: 890 nM

Q: How did the Ki [1, 3] turn out when `Cc1nc(-c2cc(C(C)c3ccc(OC(F)(F)F)c(F)c3)ncn2)cc(=O)[nH]1` (single isomer, unassigned) [Example 41, (S)- or (R)-6′-(1-(3-fluoro-4-(trifluoro-methoxy)phenyl)ethyl)-2-methyl-[4,4′-bipyrimidin]-6(1H)-one] was run?
A: 212 nM

Q: Which Ki [1, 3] does the source give for `Cc1nc(-c2cc(C(C)c3ccc(OC(F)(F)F)cc3)ncn2)cc(=O)[nH]1` (single isomer, unassigned) [Example 44, (R)- or (S)-2-methyl-6′-(1-(4-(trifluoro-methoxy)phenyl)ethyl)-[4,4′-bipyrimidin]-6(1H)-one] here?
A: 4.1 nM

Q: With `Cc1nc(-c2cc(C(C)c3ccc(C(F)(F)F)cc3)ncn2)cc(=O)[nH]1` (single isomer, unassigned) [Example 32, (R)- or (S)-2-methyl-6′-(1-(4-(trifluoromethyl)phenyl)ethyl)-[4,4′-bipyrimi-din]-6(1H)-one] as the compound, how does the Ki [1, 3] read?
A: 64 nM

Q: With `Cc1nc(-c2cc([C@@H](C)c3ccc(C(F)(F)F)cc3F)ncn2)cc(=O)[nH]1` (single isomer, unassigned) [Example 30] as the compound, how does the Ki [1, 3] read?
A: 39 nM

Q: For `Cc1nc(-c2cc([C@@H](C)c3ccc(C(F)(F)F)cc3F)ncn2)cc(=O)[nH]1` (single isomer, unassigned) [Example 31], which Ki [1, 3] is on record?
A: 16 nM

Q: How did the Ki [1, 3] turn out when `Cc1nc(-c2cc(C(C)c3ccc(OC(F)F)c(F)c3)ncn2)cc(=O)[nH]1` (single isomer, unassigned) [Example 34, (R)- or (S)-6′-(1-(4-(difluoro-methoxy)-3-fluorophenyl)ethyl)-2-methyl-[4,4′-bipyrimidin]-6(1H)-one] was run?
A: 13 nM

Q: How did the Ki [1, 3] turn out when `Cc1nc(-c2cc(C(C)c3ccc(C(F)F)c(F)c3)ncn2)cc(=O)[nH]1` (single isomer, unassigned) [Example 38, (R)- or (S)-6′-(1-(4-(difluoro-methyl)-3-fluoro-phenyl)ethyl)-2-methyl-[4,4′-bipyrimidin]-6(1H)-one] was run?
A: 30 nM

Q: Which Ki [1, 3] does the source give for `Cc1nc(-c2cc(C(C)c3ccc(OC(F)(F)F)cc3)ncn2)cc(=O)[nH]1` (single isomer, unassigned) [Example 45, (S)- or (R)-2-methyl-6′-(1-(4-(trifluoro-methoxy)phenyl)ethyl)-[4,4′-bipyrimidin]-6(1H)-one] here?
A: 194 nM

Q: Which Ki [1, 3] does the source give for `Cc1nc(-c2cc(C(C)c3ccc(C(F)(F)F)cc3)ncn2)cc(=O)[nH]1` (single isomer, unassigned) [Example 33] here?
A: 20 nM

Q: How did the Ki [1, 3] turn out when `Cc1nc(-c2cc(C(C)c3ccc(C(C)(F)F)cc3)ncn2)cc(=O)[nH]1` (single isomer, unassigned) [Example 36, (R)- or (S)-6′-(1-(4-(1,1-difluoro-ethyl)phenyl)ethyl)-2-methyl-[4,4′-bipyrimidin]-6(1H)-one] was run?
A: 20 nM

Q: For `Cc1nc(-c2cc([C@H](C)c3ccc(C(C)(C)O)cc3)ncn2)cc(=O)[nH]1` (single isomer, unassigned) [Example 47], which Ki [1, 3] is on record?
A: 1720 nM

Q: For `Cc1nc(-c2cc(C(C)c3ccc(OC(F)F)c(F)c3)ncn2)cc(=O)[nH]1` (single isomer, unassigned) [Example 35, (S)- or (R)-6′-(1-(4-(difluoro-methoxy)-3-fluorophenyl)ethyl)-2-methyl-[4,4′-bipyrimidin]-6(1H)-one], which Ki [1, 3] is on record?
A: 232 nM

Q: For `Cc1nc(-c2cc(C(C)c3ccc(C(F)F)c(F)c3)ncn2)cc(=O)[nH]1` (single isomer, unassigned) [Example 39, (S)- or (R)-6′-(1-(4-(difluoro-methyl)-3-fluoro-phenyl)ethyl)-2-methyl-[4,4′-bipyrimidin]-6(1H)-one], which Ki [1, 3] is on record?
A: 174 nM

Q: Which results are given for `Cc1nc(-c2nnc([C@H](C)c3ccc(C(F)(F)F)cc3)o2)cc(=O)[nH]1` (single isomer, unassigned) [Example 10]?
A: Ki [2, 4]: 470 nM; Ki [2, 5]: 699 nM
